Experiments:
[1] = test system: elongation of cress lower hypocotyl; assay: Inhibition of elongation of cress lower hypocotyl, with rescue by brassinolide or gibberellin; format: in vivo; conditions: FIG. 2
Protocol: Surfaces of cress seeds purchased were sterilized with 1% NaOCl solution for 20 minutes and washed 5 times with distilled water. The resulting cress seeds were sown on 1% agar-solidified medium (containing 0.5×Murashige and Skoog salts and 1.5% sucrose in Agripot (Kirin Brew Co., Tokyo)). The plants was grown in a growth chamber kept at 25[…] under a cycle of 16 hour light (240 μEm-2s-1) and 8 hour dark conditions. […] The inhibitory effect of the compound of the present invention against elongation of cress lower hypocotyl was suppressed by addition of blassinolide, whilst not suppressed by addition of gibberellin (FIG. 1).

[2] = test system: brassinosteroid biosynthesis; conditions: reported in Japanese Patent Application No. 10-227939; cited from earlier work

Structure (SMILES) | inhibitory action against brassinosteroid biosynthesis, comparison with Brz91 [1] | inhibitory action against the brassinosteroid biosynthesis [2]
C=CCC(O)(c1ccccc1)C(Cc1ccc(Cl)cc1)n1cncn1 (centres unmarked) [Brz2001, 6-(4-Chlorophenyl)-4-phenyl-5-(1,2,4-triazoyl)hexen-1-en-4-ol] | inhibitory action | –
CC(O)(c1ccccc1)C(Cc1ccc(Cl)cc1)c1nc[nH]n1 (centres unmarked) [Brz91, 4-(4-chlorophenyl)-2-phenyl-3-(1,2,4-triazolyl)butan-2-ol] | – | had the desired inhibitory action

Source: patent publication US6649568B2, “Brassinosteroid biosynthesis inhibitor” (Riken, priority 2000, dated 2003)
